Experiments:
[1] = system: T878A-bearing mutant alleles of AR (KLK3 expression); experiment: qPCR of KLK3 in LNCaP engineered to express T878A-bearing mutant ARs; type: cell-based; conditions: 10 μM; 10% FCS; FIG. 15
Method: […]. […] Infected cells were maintained in neomycin for 3 weeks.
For spontaneous clones: 200 k cells were seeded in 6 well plates in RPMI 1640 supplemented with 10% FCS for 2 d prior to treatment with various compounds for 24 h. Alternatively, for experiments involving androgen-depletion, 200 k cells were seeded and grown in 6 well plates in phenol-free RPMI 1640 supplemented with 10% FCS for 2 d. […] Similar protocols were applied for genetically engineered lines except that cells were pretreated with Dox for at least 2 d prior to treatment with various compounds to allow sufficient transgene expression. Total RNA was extracted using the RNeasy plus mini kit (Qiagen, cat#74136) according to the manufacturer's instructions. 1-2 μg of total RNA was used for cDNA synthesis using a high capacity cDNA reverse transcription kit (Applied Biosystems, cat#4368813). cDNA from each sample was diluted 15-20 fold and real-time was performed in triplicates using gene-specific primers and FastStart Universal Probe Master Mix (Rox) (Roche Applied Science) on an ABI 7900HT series PCR machine. Expression levels were normalized to TBP expression. All analysis was performed using the SDS2.3 software. […]

[2] = system: strongly resistant LNCaP clones #1, 15, 19, 24 (AR F877L/T878A); experiment: Short-term CellTiter-Glo growth assay, strongly resistant LNCaP clones; type: cell-based; conditions: for growth sensitivity compared with bicalutamide: strongly resistant clones, FIG. 6B
Method: (§1) Cells were re-seeded into 150 cm^2 dishes supplemented with the appropriate treatments once each week. Media and compound was replaced for dish 4 once every week. Once resistant clones emerged, media was aspirated from dish 4. […] Cells from control dishes 1-3 were maintained until resistant clones were cryopreserved to maintain a constant culture time for control and experimental lines.
(§2) 1000 cells (spontaneous resistant or engineered lines) were seeded in media supplemented with 10% FCS. For spontaneous resistant clones, increasing concentrations of compounds were added on the day of seeding whereas for engineered lines, compounds were added after 2 d of doxycycline treatment. In all cases growth assays were performed using CellTiter-Glo Luminescent Cell Viability Assay Reagent (Promega, cat# G7573) 7 d following compound treatment.

[3] = system: LNCaP lines engineered to express AR-F877L/T878A; experiment: Long-term colony formation assay, LNCaP expressing AR-F877L/T878A; type: cell-based; conditions: for growth sensitivity compared with bicalutamide: AR-F877L/T878A LNCaP lines, FIG. 6C colony formation
Method: (§3) Codon-optimized cDNAs encoding WT or mutant ARs were synthesized (DNA2.0) and subcloned into the pLKO-TREX-HA-Neo (Invitrogen). […] Virus was harvested 2-3 d after transfection, filtered, and used to infect LNCaP, MyC-CaP and VCaP cell cultures in the presence of 8 μg ml-1 polybrene. Infected cells were maintained in neomycin for 3 weeks. In all cases, at least 1000 independent clones were pooled to generate stable cell lines to avoid clonal variations. Stable cell lines infected with control vectors were generated in parallel for use as experimental controls.
(§4) 5000-7500 cells (spontaneous resistant or engineered lines) were seeded in 6-well plates in media supplemented with 10% FCS. […] Viable colonies were stained after 3-4 week cultures. Following media aspiration, 0.5% crystal violet was added to the wells and left overnight. The next morning, crystal violet solution was removed and wells were carefully washed with ddH2O to remove residual staining solution. The plates were air-dried overnight prior to imaging.

[4] = system: LNCaP lines engineered to express W742C/T878A AR
Method: as §3, §4

[5] = system: W742L and W742C mutant ARs; experiment: AR luciferase reporter transactivation assay, W742 mutants; type: cell-based, human; conditions: 10 μM, FIG. 12
Method: Reporter assays were performed as follows: 3×10^5 HEK293T cells were seeded in 6-well plates in DMEM supplemented with 10% FCS and 1×NEAA 24 h prior to transfection. Alternatively, 1×10^6 VCaP cells or 3×10^5 PC3 cells were seeded in 6-well plates in appropriate media supplemented with 10% CSS 24 h prior to transfection. […] Cells were collected ˜16 h following treatment and assayed for luciferase activity using the Glomax 96 microplate luminometer (Promega). Firefly activity was normalized to Renilla using the Dual Luciferase Assay reagent (Promega, E1910). All experiments were performed at least three times.

[6] = system: weakly resistant LNCaP clones #9, 10 and 14; experiment: Short-term CellTiter-Glo growth assay, weakly resistant LNCaP clones; type: cell-based; conditions: Homo sapiens, read-out: aggregate IC50, growth inhibition
Method: as §1, §2

[7] = system: W742C/T878A mutant AR (KLK3 expression); type: cell-based
Method: as §3

[8] = system: LNCaP cells, controls (C1-C3); experiment: cells; conditions: Homo sapiens, read-out: aggregate IC50, growth inhibition
Method: as §1, §2

[9] = system: AR pathway activity in control and weakly resistant lines; experiment: Microarray clustering and GSEA of AR pathway activity, control and weakly resistant lines; type: cell-based; conditions: 10 μM, 24 h
Method: (§5) Total RNA was isolated from cells using the Qiagen RNeasy Kit. RNA integrity and purity were assessed with the RNA 6000 Nano LabChip system on a Bioanalyzer 2100 (Agilent Technologies). Generation of labeled cDNA and hybridization to Affymetrix GeneChip Human Genome U133 Plus 2.0 Array (Affymetrix Inc.) was performed using standard protocols as previously described (8). Probesets from the Affymetrix gene expression datasets were normalized using MASS with a trimmed-mean target of 150, and log 2-transformed. Probesets were then filtered for inclusion only if their maximum value over different samples was at least 5. […] This regression was used to generate nominal p-values and regression coeffecients (i.e. fold-changes).

[10] = system: AR localization in strongly resistant clone #1; experiment: Nuclear/cytoplasmic fractionation of AR, strongly resistant clone #1; type: cell-based; conditions: 10 μM, 24 h
Method: (§7) The next day, cells were harvested with trypsin, centrifuged at 500×g for 5 min, washed with PBS, transferred to 1.5 ml microcentrifuge tubes and pelleted by centrifugation at 500×g for 2-3 min. […] Briefly, the pellet was resuspended in 500 μl of ice-cold Cer I buffer and incubated on ice for 10 min. Following incubation, 27.5 μl of ice-cold Cer II buffer was added, vortexed and incubated for 1 min on ice. The lysate/Cer I/II mixture was vortexed again, centrifuged at 14000×g for 5 min and the cytoplasmic extract (supernatant) was transferred to pre-chilled tubes. The insoluble pellet, which contains nuclei, was resuspended in ice-cold 250 μl NER buffer, vortexed and placed on ice. Sample was vortexed for 15 s every 10 min for a total of 40 min. Following incubation, samples were centrifuged at 14000×g for 10 min. Supernatant, which contains the nuclear extract, was transferred to pre-chilled tubes. These samples were processed for immunoblot analysis as described above.

LNCaP cells = experiment: Culture of LNCaP cells with MDV3100; type: cell-based; conditions: short-term culture (<1.5 months); FCS+MDV relative to FCS
Method: 2 million LNCaP cells were seeded into four 150 cm^2 tissue culture dishes in phenol red-free RPMI 1640 media supplemented with 10% FCS. […] Cells were re-seeded into 150 cm^2 dishes supplemented with the appropriate treatments once each week. Media and compound was replaced for dish 4 once every week. Once resistant clones emerged, media was aspirated from dish 4. […] Cells from control dishes 1-3 were maintained until resistant clones were cryopreserved to maintain a constant culture time for control and experimental lines.

CYP2C9 = conditions: in humans; cited from earlier work
[11] = system: E2F1 target genes DHFR and TK1 in control line; experiment: qPCR of E2F1 target genes in control line; type: cell-based; conditions: 10 μM, 24 h
Method: (§6) For spontaneous clones: 200 k cells were seeded in 6 well plates in RPMI 1640 supplemented with 10% FCS for 2 d prior to treatment with various compounds for 24 h. Alternatively, for experiments involving androgen-depletion, 200 k cells were seeded and grown in 6 well plates in phenol-free RPMI 1640 supplemented with 10% FCS for 2 d. […] Similar protocols were applied for genetically engineered lines except that cells were pretreated with Dox for at least 2 d prior to treatment with various compounds to allow sufficient transgene expression. Total RNA was extracted using the RNeasy plus mini kit (Qiagen, cat#74136) according to the manufacturer's instructions. 1-2 μg of total RNA was used for cDNA synthesis using a high capacity cDNA reverse transcription kit (Applied Biosystems, cat#4368813). cDNA from each sample was diluted 15-20 fold and real-time was performed in triplicates using gene-specific primers and FastStart Universal Probe Master Mix (Rox) (Roche Applied Science) on an ABI 7900HT series PCR machine. Expression levels were normalized to TBP expression. All analysis was performed using the SDS2.3 software. The following gene-specific primers (Invitrogen) were used: AR (Hs00171172_m1), KLK3 (Hs02576345_m1), NKX3-1 (Hs00171834_m1), TMPRSS2 (Hs01120965_m1), SLC45A3 (Hs00263832_m1), TBP (Hs00427620_m1), DHFR (Hs00758822_s1) and TK1 (Hs01062125_m1).

[12] = system: AR localization in control (C1) LNCaP line; experiment: Nuclear/cytoplasmic fractionation of AR, control line C1; type: cell-based; conditions: 10 μM, 24 h
Method: as §7

[13] = system: AR pathway activity in strongly resistant clones; experiment: Microarray clustering and GSEA of AR pathway activity, strongly resistant clones; type: cell-based; conditions: 10 μM, 24 h
Method: as §5

CYP2C19 = conditions: in humans; cited from earlier work
CYP3A4 = conditions: in humans; cited from earlier work
[14] = system: LNCaP control (C1) tumors; experiment: In vivo tumorigenesis assay, control C1 xenografts; parameters: species or system castrated male nu/nu mice
Method: 10 million LNCaP cells (C1, clone #1) mixed 1:1 with matrigel were injected subcutaneously into the flank of castrated 7-8 week male nu/nu mice. […]. Tumors were measured using calipers and tumor volumes were calculated using length×width/2. Data is expressed as mean±SEM. All animal experiments were performed in compliance with the guidelines of Novartis Biomedical Research Animal Care and Use Committee protocols and regulations.

[15] = randomized clinical trial; cited from earlier work
[16] = system: AR target genes KLK3, NKX3-1 and SLC45A3 in strongly resistant clones; experiment: qPCR of AR target genes in strongly resistant clones; type: cell-based; conditions: 24 h
Method: as §6

CC(C)(O)C(=O)Nc1ccc([N+](=O)[O-])c(C(F)(F)F)c1 [hydroxyflutamide]
agonist/antagonist behaviour on KLK3 expression [1]: antagonist-to-agonist switch

CC(=O)c1c(C)c2cnc(Nc3ccc(N4CCNCC4)cn3)nc2n(C2CCCC2)c1=O [PD0332991]
growth sensitivity compared with bicalutamide [2]: as sensitive | growth sensitivity compared with bicalutamide [3]: as sensitive

CN(C)C(=O)c1cc2cnc(Nc3ccc(N4CCNCC4)cn3)nc2n1C1CCCC1 [LEE011, 7-Cyclopentyl-2-(5-piperazin-1-yl-pyridin-2-ylamino)-7H-pyrrolo[2,3-d]pyrimidine-6-carboxylic acid dimethylamide]
growth sensitivity compared with bicalutamide [2]: as sensitive | growth sensitivity compared with bicalutamide [3]: as sensitive

CC(O)(CS(=O)(=O)c1ccc(F)cc1)C(=O)Nc1ccc(C#N)c(C(F)(F)F)c1 (stereo not drawn) [bicalutamide, N-[4-cyano-3-(trifluoromethyl)phenyl]-3-[(4-fluorophenyl)sulfonyl]-2-hydroxy-2-methylpropanamide]
IC50 ([2]; Homo sapiens, LNCaP, read-out: aggregate IC50, growth inhibition): 5 µM | growth under treatment on expression of F877L/T878A allele [3]: remained sensitive | growth under treatment on expression of W742C/T878A allele [4]: significantly rescued growth | agonist/antagonist behaviour in AR reporter assay [5]: antagonist-to-agonist switch | IC50 [6]: > 10 µM | agonist/antagonist behaviour on KLK3 expression [7]: antagonist-to-agonist switch | IC50 [8]: 1 µM

CNC(=O)c1ccc(N2C(=S)N(c3ccc(C#N)c(C(F)(F)F)c3)C(=O)C2(C)C)cc1F [MDV3100, 4-{3-[4-cyano-3-(trifluoromethyl)phenyl]-5,5-dimethyl-4-oxo-2-sulfanylideneimidazolidin-1-yl}-2-fluoro-N-methylbenzamide]
AR pathway activity upon treatment [9]: reduced AR pathway activity | nuclear AR localization [10]: not significantly altered | effect of short-term culture on cell population (LNCaP cells): population-wide stasis | CYP2C9 induction (CYP2C9): moderate | expression of E2F1 target genes DHFR and TK1 [11]: suppressed expression | nuclear AR localization [12]: significantly impaired | AR pathway activity upon treatment [13]: insignificant change | CYP2C19 induction (CYP2C19): moderate | CYP3A4 induction (CYP3A4): strong | body weight during treatment period ([14]; control 1 xenograft mice, 30 mg/kg daily): No significant body weight loss | tumor growth under treatment ([14]; control C1 tumors, 30 mg/kg daily): immediate stasis | tumor take rates, treated vs. vehicle ([14]; control cells C1, 9 of 15 vs. 10 of 15): indistinguishable | incidence of most common adverse drug reactions (asthenia/fatigue, back pain, diarrhea, arthralgia, hot flush etc.) [15]: ≥ 5% | effect on expression of AR target genes KLK3, NKX3-1 and SLC45A3 ([16]; 10 μM, 10% FCS, FIG. 2c): blunted effects | KLK3 expression ([16]; media stripped of androgens (10% CSS), alone or with agonist): significantly enhanced KLK3 expression
